T1: Histidinol dehydrogenase (Brucella suis biovar 1 (strain 1330), UniProt Q8G2R2)
T1 sequence (Q8G2R2 whole entry): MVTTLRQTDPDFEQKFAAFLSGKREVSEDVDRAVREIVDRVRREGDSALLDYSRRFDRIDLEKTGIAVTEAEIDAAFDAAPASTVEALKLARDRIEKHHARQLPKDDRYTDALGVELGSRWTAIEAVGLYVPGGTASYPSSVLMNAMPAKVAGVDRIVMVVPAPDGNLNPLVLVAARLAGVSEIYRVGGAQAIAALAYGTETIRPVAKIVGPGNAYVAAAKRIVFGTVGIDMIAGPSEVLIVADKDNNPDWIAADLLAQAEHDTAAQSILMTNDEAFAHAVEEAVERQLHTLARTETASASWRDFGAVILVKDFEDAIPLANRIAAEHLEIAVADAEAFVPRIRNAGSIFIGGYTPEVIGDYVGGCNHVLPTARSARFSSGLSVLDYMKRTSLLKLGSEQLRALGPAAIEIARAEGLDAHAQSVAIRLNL


Assays:
[1] = target: T1, Histidinol dehydrogenase; test: Inhibition of Brucella suis histidinol dehydrogenase
[2] = substrate: N[C@H](CO)Cc1c[nH]cn1; test: Activity of Brucella suis histidinol dehydrogenase

| Molecule | IC50 [1] [nM] | Km [2] [µM] |
| --- | --- | --- |
| N[C@@H](Cc1c[nH]cn1)C(=O)Cc1ccc(Cl)c(Cl)c1 | 20 | – |
| Cc1ccc(CC(=O)[C@@H](N)Cc2c[nH]cn2)cc1 | 15 | – |
| N[C@@H](Cc1c[nH]cn1)C(=O)Cc1c(F)c(F)c(F)c(F)c1F | 70 | – |
| N[C@@H](Cc1c[nH]cn1)C(=O)Cc1ccc2ccccc2c1 | 14.5 | – |
| COc1ccc(CC(=O)[C@@H](N)Cc2c[nH]cn2)cc1 | 150 | – |
| N[C@@H](Cc1c[nH]cn1)C(=O)Cc1ccc(F)cc1 | 15 | – |
| N[C@@H](Cc1c[nH]cn1)C(=O)Cc1ccc(Cl)cc1 | 12 | – |
| N[C@@H](Cc1c[nH]cn1)C(=O)Cc1cccc2ccccc12 | 200 | – |
| N[C@@H](Cc1c[nH]cn1)C(=O)Cc1ccccc1 | 40 | – |
| N[C@@H](Cc1c[nH]cn1)C(=O)Cc1ccc(OCc2ccccc2)cc1 | 3 | – |
| N[C@@H](Cc1c[nH]cn1)C(=O)Cc1ccc(F)cc1F | 10 | – |
| N[C@@H](Cc1c[nH]cn1)C(=O)Cc1ccc2c(c1)OCO2 | 25 | – |
| N[C@@H](Cc1c[nH]cn1)C(=O)Cc1ccc(-c2ccccc2)cc1 | 12.5 | – |
| N[C@@H](Cc1c[nH]cn1)C(=O)Cc1ccc(Br)cc1 | 6 | – |
| N[C@@H](Cc1c[nH]cn1)C(=O)Cc1ccc(Oc2ccccc2)cc1 | 16 | – |
| Histidinol dehydrogenase (Brucella suis biovar 1 (strain 1330)), Q8G2R2 (protein) MVTTLRQTDPDFEQKFAAFLSGKREVSEDVDRAVREIVDRVRREGDSALLDYSRRFDRIDLEKTGIAVTEAEIDAAFDAAPASTVEALKLARDRIEKHHARQLPKDDRYTDALGVELGSRWTAIEAVGLYVPGGTASYPSSVLMNAMPAKVAGVDRIVMVVPAPDGNLNPLVLVAARLAGVSEIYRVGGAQAIAALAYGTETIRPVAKIVGPGNAYVAAAKRIVFGTVGIDMIAGPSEVLIVADKDNNPDWIAADLLAQAEHDTAAQSILMTNDEAFAHAVEEAVERQLHTLARTETASASWRDFGAVILVKDFEDAIPLANRIAAEHLEIAVADAEAFVPRIRNAGSIFIGGYTPEVIGDYVGGCNHVLPTARSARFSSGLSVLDYMKRTSLLKLGSEQLRALGPAAIEIARAEGLDAHAQSVAIRLNL | – | 12 |

From ChEMBL document CHEMBL1143663, “Brucella suis histidinol dehydrogenase: synthesis and inhibition studies of a series of substituted benzylic ketones derived from histidine” (Bioorg Med Chem, 2007)
